Source: patent US9492471B2, “Methods of treating a disease or disorder associated with Bruton'S Tyrosine Kinase” (Celgene Avilomics Research, Inc., priority 2013, dated 2016)
Where two headings read alike, the source gives them in different places.

How the values were obtained:
Experiment in all cases: HotSpot kinase profiling
Type in all cases: biochemical
ERK7/MAPK15 = target: T1, ERK7/MAPK15 (Homo sapiens, UniProt Q8TD08)
T1 construct: purchased Reaction Biology Corp
T1 sequence (Q8TD08 1-544): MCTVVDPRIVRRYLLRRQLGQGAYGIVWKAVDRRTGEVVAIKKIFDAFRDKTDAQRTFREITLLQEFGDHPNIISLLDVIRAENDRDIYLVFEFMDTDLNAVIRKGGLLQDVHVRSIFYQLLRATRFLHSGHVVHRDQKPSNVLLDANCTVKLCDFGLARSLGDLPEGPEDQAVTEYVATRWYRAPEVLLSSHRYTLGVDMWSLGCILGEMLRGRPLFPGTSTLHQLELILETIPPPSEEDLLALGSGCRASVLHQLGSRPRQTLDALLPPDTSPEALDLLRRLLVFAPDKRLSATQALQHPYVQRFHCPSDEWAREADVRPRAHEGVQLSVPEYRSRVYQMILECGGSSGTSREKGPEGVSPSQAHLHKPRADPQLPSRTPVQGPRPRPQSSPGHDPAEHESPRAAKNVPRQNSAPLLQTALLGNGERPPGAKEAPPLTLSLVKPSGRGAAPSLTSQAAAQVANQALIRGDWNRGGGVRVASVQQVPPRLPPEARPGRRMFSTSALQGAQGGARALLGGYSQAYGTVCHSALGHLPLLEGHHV
How it was run: (§1)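 Radiometric kinase assay with P81 filter capture; each kinase was added to fresh substrate plus cofactors in reaction buffer and incubated 2 h at room temperature. Unreacted phosphate was washed off with 0.1% phosphoric acid before detection; percent inhibition is relative to DMSO control, averaged over replicates.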

CDK9/cyclin T1 = target: T2, CDK9/cyclin T1 (Homo sapiens, UniProt P50750)
T2 construct: purchased Reaction Biology Corp
How it was run: as §1

SSTK/TSSK6 = target: T3, SSTK/TSSK6 (Homo sapiens, UniProt Q9BXA6)
T3 construct: purchased Reaction Biology Corp
How it was run: as §1

SLK/STK2 = target: T4, SLK/STK2 (Homo sapiens, UniProt Q9H2G2)
T4 construct: purchased Reaction Biology Corp
How it was run: as §1

DRAK1/STK17A = target: T5, DRAK1/STK17A (Homo sapiens, UniProt Q9UEE5)
T5 construct: purchased Reaction Biology Corp
T5 sequence (Q9UEE5 1-414): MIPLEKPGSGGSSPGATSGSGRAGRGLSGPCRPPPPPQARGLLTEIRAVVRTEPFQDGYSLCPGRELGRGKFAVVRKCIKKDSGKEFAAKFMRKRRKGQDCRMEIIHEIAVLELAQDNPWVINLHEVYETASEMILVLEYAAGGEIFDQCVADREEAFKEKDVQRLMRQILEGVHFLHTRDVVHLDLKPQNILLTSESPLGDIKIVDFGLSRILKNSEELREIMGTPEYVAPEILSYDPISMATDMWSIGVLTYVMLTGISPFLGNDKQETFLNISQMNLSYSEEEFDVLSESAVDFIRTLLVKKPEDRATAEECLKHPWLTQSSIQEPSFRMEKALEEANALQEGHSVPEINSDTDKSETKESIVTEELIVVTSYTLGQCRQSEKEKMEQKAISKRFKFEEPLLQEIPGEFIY
How it was run: as §1

DDR2 = target: T6, DDR2 (Homo sapiens, UniProt Q16832)
T6 construct: purchased Reaction Biology Corp
T6 sequence (Q16832 22-855): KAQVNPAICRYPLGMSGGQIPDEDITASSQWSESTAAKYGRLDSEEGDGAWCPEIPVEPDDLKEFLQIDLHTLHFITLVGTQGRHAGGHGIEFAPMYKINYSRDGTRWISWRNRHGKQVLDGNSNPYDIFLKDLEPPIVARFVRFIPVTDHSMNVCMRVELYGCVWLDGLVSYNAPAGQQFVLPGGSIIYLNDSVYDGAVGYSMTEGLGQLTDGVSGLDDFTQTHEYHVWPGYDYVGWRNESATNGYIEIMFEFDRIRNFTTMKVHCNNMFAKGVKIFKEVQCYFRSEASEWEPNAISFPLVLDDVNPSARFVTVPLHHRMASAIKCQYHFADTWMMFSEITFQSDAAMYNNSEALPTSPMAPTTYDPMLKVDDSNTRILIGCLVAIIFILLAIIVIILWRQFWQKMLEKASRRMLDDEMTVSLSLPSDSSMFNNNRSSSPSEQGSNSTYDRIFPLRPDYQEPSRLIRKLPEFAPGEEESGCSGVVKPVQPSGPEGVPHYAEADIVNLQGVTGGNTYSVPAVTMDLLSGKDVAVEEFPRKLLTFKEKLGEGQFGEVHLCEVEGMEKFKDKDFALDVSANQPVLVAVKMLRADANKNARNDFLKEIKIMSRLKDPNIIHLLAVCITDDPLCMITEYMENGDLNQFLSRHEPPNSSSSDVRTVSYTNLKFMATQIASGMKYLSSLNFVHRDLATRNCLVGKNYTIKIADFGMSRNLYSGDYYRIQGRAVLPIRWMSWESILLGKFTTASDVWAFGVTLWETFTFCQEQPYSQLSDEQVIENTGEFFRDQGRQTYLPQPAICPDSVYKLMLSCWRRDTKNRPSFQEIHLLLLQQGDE
How it was run: as §1

CAMKK1 = target: T7, CAMKK1 (Homo sapiens, UniProt Q8N5S9)
T7 construct: purchased Reaction Biology Corp
How it was run: as §1

DDR1 = target: T8, DDR1 (Homo sapiens, UniProt Q08345)
T8 construct: purchased Reaction Biology Corp
How it was run: as §1

[1] = read-out: % Enzyme Activity (relative to DMSO controls) Run 1
[2] = read-out: % Enzyme Activity (relative to DMSO controls) Run 2

T8 sequence (Q08345 19-913): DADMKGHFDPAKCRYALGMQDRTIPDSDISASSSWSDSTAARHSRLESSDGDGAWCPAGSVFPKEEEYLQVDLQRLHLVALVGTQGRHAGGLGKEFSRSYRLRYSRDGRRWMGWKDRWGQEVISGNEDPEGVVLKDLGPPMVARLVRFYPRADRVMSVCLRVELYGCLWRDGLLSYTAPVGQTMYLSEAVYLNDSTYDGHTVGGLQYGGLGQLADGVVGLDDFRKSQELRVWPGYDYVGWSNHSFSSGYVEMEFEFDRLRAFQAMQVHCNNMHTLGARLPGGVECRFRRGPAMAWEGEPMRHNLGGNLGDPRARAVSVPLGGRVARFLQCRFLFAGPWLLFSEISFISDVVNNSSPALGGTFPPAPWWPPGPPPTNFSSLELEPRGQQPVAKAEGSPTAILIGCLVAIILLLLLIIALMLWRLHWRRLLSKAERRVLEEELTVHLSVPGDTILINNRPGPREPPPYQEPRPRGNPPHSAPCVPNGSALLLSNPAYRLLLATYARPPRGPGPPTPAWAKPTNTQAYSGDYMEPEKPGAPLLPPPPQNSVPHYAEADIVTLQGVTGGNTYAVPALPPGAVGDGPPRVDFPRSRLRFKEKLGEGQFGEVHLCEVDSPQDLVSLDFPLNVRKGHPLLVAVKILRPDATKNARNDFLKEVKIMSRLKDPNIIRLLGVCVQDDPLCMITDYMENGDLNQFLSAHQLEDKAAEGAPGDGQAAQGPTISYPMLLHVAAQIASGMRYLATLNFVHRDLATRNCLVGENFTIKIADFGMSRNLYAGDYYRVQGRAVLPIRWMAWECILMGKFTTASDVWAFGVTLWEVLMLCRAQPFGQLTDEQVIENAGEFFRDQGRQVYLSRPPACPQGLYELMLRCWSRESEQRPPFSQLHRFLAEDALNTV
T3 sequence (Q9BXA6 whole entry): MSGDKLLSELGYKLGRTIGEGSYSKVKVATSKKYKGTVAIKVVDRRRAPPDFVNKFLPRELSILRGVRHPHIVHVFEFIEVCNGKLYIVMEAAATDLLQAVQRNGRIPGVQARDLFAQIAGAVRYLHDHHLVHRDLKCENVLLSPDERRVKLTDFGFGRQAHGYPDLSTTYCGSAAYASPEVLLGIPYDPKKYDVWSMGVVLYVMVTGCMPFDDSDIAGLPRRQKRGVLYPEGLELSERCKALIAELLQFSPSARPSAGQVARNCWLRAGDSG
T7 sequence (Q8N5S9 whole entry): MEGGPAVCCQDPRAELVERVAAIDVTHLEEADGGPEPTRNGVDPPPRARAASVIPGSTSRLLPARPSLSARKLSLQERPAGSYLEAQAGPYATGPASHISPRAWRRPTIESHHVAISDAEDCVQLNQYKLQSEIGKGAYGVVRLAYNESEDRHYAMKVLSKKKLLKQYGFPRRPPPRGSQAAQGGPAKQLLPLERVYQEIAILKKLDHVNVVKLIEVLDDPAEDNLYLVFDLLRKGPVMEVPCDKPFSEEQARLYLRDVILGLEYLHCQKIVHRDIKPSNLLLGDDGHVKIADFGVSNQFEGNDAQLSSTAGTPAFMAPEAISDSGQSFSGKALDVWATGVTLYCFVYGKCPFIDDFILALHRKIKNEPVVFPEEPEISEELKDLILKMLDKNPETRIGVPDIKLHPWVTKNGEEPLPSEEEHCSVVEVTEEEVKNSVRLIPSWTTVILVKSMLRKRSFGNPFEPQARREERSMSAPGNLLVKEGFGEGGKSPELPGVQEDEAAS
T4 sequence (Q9H2G2 whole entry): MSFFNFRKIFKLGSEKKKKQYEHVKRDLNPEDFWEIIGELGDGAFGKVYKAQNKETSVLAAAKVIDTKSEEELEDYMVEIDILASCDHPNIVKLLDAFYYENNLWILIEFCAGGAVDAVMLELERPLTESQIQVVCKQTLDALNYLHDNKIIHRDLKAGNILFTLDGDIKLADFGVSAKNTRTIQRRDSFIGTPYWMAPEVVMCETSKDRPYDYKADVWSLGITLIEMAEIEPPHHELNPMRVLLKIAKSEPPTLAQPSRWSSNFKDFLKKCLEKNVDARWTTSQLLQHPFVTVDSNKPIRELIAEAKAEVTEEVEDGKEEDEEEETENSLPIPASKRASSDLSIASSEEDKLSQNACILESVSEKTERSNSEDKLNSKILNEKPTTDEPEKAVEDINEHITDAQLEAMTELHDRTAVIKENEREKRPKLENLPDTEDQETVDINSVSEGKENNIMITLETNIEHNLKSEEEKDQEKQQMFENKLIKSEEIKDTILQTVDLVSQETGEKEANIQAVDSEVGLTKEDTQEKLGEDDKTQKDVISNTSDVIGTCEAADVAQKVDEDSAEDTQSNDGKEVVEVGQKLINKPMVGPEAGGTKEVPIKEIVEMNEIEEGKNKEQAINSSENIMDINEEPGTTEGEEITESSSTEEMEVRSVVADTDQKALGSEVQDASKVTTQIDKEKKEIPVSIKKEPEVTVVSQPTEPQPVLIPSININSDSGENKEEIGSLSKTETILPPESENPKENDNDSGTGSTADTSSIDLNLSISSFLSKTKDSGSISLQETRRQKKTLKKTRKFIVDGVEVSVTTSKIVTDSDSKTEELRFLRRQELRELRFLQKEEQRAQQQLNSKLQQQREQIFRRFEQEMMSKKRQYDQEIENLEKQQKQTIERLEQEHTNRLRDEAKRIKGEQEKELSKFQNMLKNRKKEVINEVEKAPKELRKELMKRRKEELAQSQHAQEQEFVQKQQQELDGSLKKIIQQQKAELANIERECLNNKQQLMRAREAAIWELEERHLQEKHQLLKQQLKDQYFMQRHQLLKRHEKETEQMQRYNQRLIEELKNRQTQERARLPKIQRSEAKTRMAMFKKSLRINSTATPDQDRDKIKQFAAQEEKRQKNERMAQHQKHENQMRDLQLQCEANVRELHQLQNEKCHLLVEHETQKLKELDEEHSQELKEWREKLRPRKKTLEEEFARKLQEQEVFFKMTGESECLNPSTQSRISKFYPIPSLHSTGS
T2 sequence (P50750 whole entry): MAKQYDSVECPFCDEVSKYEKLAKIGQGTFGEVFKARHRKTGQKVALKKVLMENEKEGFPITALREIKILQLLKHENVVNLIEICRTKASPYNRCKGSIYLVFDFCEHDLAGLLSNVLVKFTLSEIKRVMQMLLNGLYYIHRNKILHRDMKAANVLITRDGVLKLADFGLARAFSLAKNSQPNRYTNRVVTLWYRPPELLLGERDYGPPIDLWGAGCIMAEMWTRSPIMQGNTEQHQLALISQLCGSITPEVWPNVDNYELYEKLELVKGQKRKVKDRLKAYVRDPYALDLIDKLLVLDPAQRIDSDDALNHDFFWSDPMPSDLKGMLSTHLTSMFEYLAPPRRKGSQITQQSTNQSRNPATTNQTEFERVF
T2 sequence (O60563 whole entry partner): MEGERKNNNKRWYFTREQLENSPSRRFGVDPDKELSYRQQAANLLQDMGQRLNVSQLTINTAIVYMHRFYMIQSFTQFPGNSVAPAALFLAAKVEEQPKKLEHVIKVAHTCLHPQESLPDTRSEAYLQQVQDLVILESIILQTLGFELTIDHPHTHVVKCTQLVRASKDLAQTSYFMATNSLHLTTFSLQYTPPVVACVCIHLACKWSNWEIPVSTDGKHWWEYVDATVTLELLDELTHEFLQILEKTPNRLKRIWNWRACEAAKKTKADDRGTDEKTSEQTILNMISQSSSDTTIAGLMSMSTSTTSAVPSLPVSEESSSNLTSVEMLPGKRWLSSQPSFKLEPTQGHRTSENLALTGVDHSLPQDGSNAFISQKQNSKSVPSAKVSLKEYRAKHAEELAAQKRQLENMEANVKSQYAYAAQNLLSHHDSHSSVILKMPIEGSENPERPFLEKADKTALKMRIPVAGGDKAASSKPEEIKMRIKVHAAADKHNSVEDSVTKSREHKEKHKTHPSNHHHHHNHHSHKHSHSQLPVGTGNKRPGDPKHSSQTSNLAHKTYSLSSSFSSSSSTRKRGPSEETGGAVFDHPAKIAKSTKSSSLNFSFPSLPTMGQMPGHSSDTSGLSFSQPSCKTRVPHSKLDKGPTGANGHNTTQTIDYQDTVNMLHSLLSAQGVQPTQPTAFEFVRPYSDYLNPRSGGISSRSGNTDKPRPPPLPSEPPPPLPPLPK

With `C=CC(=O)Nc1cccc(Nc2nc(Nc3ccc(OCCOC)c(F)c3)ncc2F)c1` [Compound 2] the inhibition at 3 µM (ERK7/MAPK15) was 35.1%, the remaining activity at 3 µM (ERK7/MAPK15; [1]) was 63.8% and the remaining activity at 3 µM (ERK7/MAPK15; [2]) was 66%. The inhibition at 3 µM (CDK9/cyclin T1) was 10.3%, the remaining activity at 3 µM (CDK9/cyclin T1; [1]) was 87.8% and the remaining activity at 3 µM (CDK9/cyclin T1; [2]) was 91.5%. For the same compound, the inhibition at 3 µM (SSTK/TSSK6) was -3.6%, the remaining activity at 3 µM (SSTK/TSSK6; [1]) was 107% and the remaining activity at 3 µM (SSTK/TSSK6; [2]) was 99.8%. The inhibition at 3 µM (SLK/STK2) was 24.9%, the remaining activity at 3 µM (SLK/STK2; [1]) was 74.9% and the remaining activity at 3 µM (SLK/STK2; [2]) was 75.3%. For the same compound, the inhibition at 3 µM (DRAK1/STK17A) was 18.2%, the remaining activity at 3 µM (DRAK1/STK17A; [1]) was 82.9% and the remaining activity at 3 µM (DRAK1/STK17A; [2]) was 80.6%. The inhibition at 3 µM (DDR2) was -3.87%, the remaining activity at 3 µM (DDR2; [1]) was 103% and the remaining activity at 3 µM (DDR2; [2]) was 105%. The inhibition at 3 µM (CAMKK1) was 9.31%, the remaining activity at 3 µM (CAMKK1; [1]) was 93.5% and the remaining activity at 3 µM (CAMKK1; [2]) was 87.9%. The inhibition at 3 µM (DDR1) was 75.1%, the remaining activity at 3 µM (DDR1; [1]) was 25.7% and the remaining activity at 3 µM (DDR1; [2]) was 24.1%.
